The results in this text go back to US9212178B2, “Substituted pyrimidine compounds and their use as SYK inhibitors” (Genosco, priority 2013, dated 2015).

Read-outs that look alike come from different tables or passages of the source.

For test [1], the system named is Human peripheral CD19+ B cells. The experiment in a line: Cellular SLE model: immunoglobulin production in human peripheral B cells stimulated via TLR9 (ODN2006). The format is cell-based. The settings on record: for IC50: human B cell, ODN2006 and IL-2, 6 days; for Inhibition of IgG and IgM production (in words): TLR9 stimulated by ODN2006 and IFNα. The source says: Systemic lupus erythematosus (SLE) is a chronic inflammatory autoimmune disease and can affect several organs and systems. It is characterized by high production of autoantibodies against nuclear compounds. TLR7/8/9 are responsible for nucleic acid recognition and they trigger proinflammatory responses through activation of […] and Type I IFN production, making a bridge between the innate and the adaptive immune systems. TLR9 signaling pathway was adopted for cellular SLE model using human peripheral B cells to test potency of SYK inhibitor of Formula (I).
Human peripheral CD19+ B cells from an adult healthy donor were purchased from Sanguine Biosciences (Sherman Oaks, Calif.). B cells were cultured in 96-well plates with complete RPMI 1640 medium (Corning, Tewksbury, Mass.) supplemented with 10% heat-inactivated FBS (Life Technologies, Grand Island, N.Y.) and penicillin/streptomycin (Corning). B cells were stimulated with 1 μM ODN2006 (InvivoGen, San Diego, Calif.) and 20 ng/ml IFNα (PBL Assay Science, Piscataway, N.J.) for 3 days for toll-like receptor-9 (TLR-9)-mediated B cell growth. To differentiate naïve B cells into plasma cells, peripheral B cells were differentiated with 50 nM ODN2006 and 10 ng/ml IL-2 in a presence of various concentrations of SYK inhibitors for 6 days. Culture supernatants were collected and IgM and IgG production was measured using human IgM or IgG ELISA kit (BioLegend).

The next test relates to SUDHL6. The experiment in a line: DLBCL cell proliferation, ATPLite assay. The settings on record: for IC50: SUDHL6, 72 hours, read-out: Inhibition of proliferation IC50; for Inhibition of proliferation (in words): SUDHL6. The format is cell-based, human. The source says:
(§1) Several lines of evidence support the role of B cell receptor (BCR)-mediated survival signals in certain B cell malignancies such as non-Hodgkin lymphomas (NHL) including diffuse large B cell lymphoma (DLBCL). B cell receptor (BCR) signaling pathway components represent promising treatment targets in diffuse large B cell lymphoma (DLBCL) and additional B cell tumors. In order to address whether SYK inhibitor of Compounds of Formula (I), cellular viability of diffuse large B cell lymphoma (DLBCL) cells was measured on treatment of a series of concentration of SYK inhibitor.
(§2) The DLBCL cells, SUDHL4, SUDHL6 and OCI-LY1 […] were obtained from the American Type Culture Collection (ATCC, Manassas, Va., USA) or DSMZ (Braunschweig, Germany). […] The SUDHL4, SUDHL6 and OCI-LY1 cells were seeded at 1×10^5 cells/100 μL/well into 96 well culture plate, and serially diluted compound was then added. After an 72 hours of incubation period at 37° C., cells were subjected to an ATPLite assay (PerkinElmer) to determine the cytotoxic effects of the compound. The IC50 value of the test compound was calculated at Gradpad Prism 5 unless otherwise specified.
For orientation: Cellular ATP, detected with luciferase, serves as a proxy for viable cell number.

For a further test, the system named is SUDHL4. As to the kind of experiment: DLBCL cell proliferation, ATPLite assay. Format: cell-based, human. The settings on record: for IC50: SUDHL4, 72 hours, read-out: Inhibition of proliferation IC50; for Inhibition of proliferation (in words): SUDHL4.
Source text: as §1, §2

The test system of a further test is OCI-LY1. The experiment in a line: DLBCL cell proliferation, ATPLite assay. Format: cell-based, human. Conditions: for IC50: OCI-LY1, 72 hours, read-out: Inhibition of proliferation IC50; for Inhibition of proliferation (in words): OCI-LY1.
Source text: as §1, §2

A further test deals with THP-1 cells. As to the kind of experiment: SYK-dependent TNF-α release assay (IgG stimulation), ELISA. Format: cell-based. Conditions: THP-1 cells on human IgG-coated plate, 18 hours; read-out: TNF-α release inhibition, IgG stimulation IC50. The procedure: In order to address cellular potency of Compounds of Formula (I), TNF-a production was measured on treatment of a series of concentration of SYK inhibitor in THP-1 cells.
For SYK-dependent TNF-α release assay (i.e., via IgG stimulation), THP-1 cells derived from human monocytic cells were obtained from the American Type Culture Collection (ATCC, Manassas, Va.). This cell line was maintained with a Roswell Park Memorial Institute (RPMI) medium (GIBCO) containing 10% fetal bovine serum (FBS; GIBCO) and 0.05 mM solution of 2-mercaptoethanol. The THP-1 cells were seeded at 1×10^5 cells/100 μL/well into human IgG (10 ng/well, INVITROGEN)-coated 96 well culture plate, and serially diluted compound was then added. After an 18 hours of incubation period at 37° C., supernatants were collected for the determination of the TNF-α level by enzyme-linked immunosorbent assay (ELISA), and the remaining cells were subjected to an MTT (yellow tetrazolium salt) assay to determine the cytotoxic effects of the compound. The IC50 value of the test compound was calculated at Gradpad Prism 5 unless otherwise specified.
A general note: An ELISA detects its analyte on a solid surface through an enzyme-linked reagent.

For test [2], the system named is Collagen-induced arthritis in DBA/1J mice. The experiment in a line: Collagen-induced arthritis (CIA) mouse model, macroscopic paw scoring. Format: in vivo. Conditions: for CIA index (arthritic score of test group / vehicle group x 100): 30 mg/kg/day once daily oral gavage, vehicle = 100.0. The procedure:
CIA mouse model was induced in DBA/1J mice (Japan Charles River Breeding Laboratories, Kanagawa, Japan) with 5 to 6 weeks of age. Animals were maintained at a temperature of 20±5° C. and a relative humidity of 40˜60%.
Bovine type II collagen (CII, 2 mg/ml dissolved in 0.05 M acetic acid, Chondrex, Redmond, Wash.) was emulsified in equal volumes of Freund's complete adjuvant (4 mg/ml of Mycobacterium tuberculosis strain H37Ra; Chondrex, Redmond, Wash.). On day 0, mice were immunized intradermally at the base of the tail with 100 μg bovine type II collagen emulsified in Freund's complete adjuvant. On day 21, all mice were boosted with an intraperitoneal injection of 100 μg type II collagen.
These compounds were dissolved in NMP/20% cyclodextrin/PEG400 5:45:50 solution and filtered by […] membrane filter. All the test substances were administered once daily at 30 mg/kg/day by oral gavage for 3 weeks.
The gradual onset of arthritis usually starts approximately 3 weeks after initial immunization. The progression of CIA was evaluated by the macroscopic scoring of paws at intervals of 3 days. The edema and swelling of each paw was scored visually as was described previously, using a scale of 0-4, where 0=no visible abnormalities, 1=mild redness or swelling of the wrist or up to three inflamed digits, 2=more than three inflamed digits or moderate redness and swelling of the ankle or wrist, 3=severe ankle and wrist inflammation, 4=extensive ankle and wrist inflammation including all digits. Therefore, the score of each mouse was calculated for the four limbs (maximum total score of 16 for each mouse) (Courtenay J S, Dallman M J, Dayan A D, et al., Immunisation against heterologous type II collagen induces arthritis in mice, Nature, 1980, 283, 666-668)
Arthritis was considered to be present if the score was >2. The blind scoring was performed by four independent observers. In this study, data was calculated by following equation. […] Results

The target in the next test is full-length human SYK (Homo sapiens (Human), UniProt P43405). As to the kind of experiment: Inhibition of enzymatic SYK kinase activity (LANCE Ulight TK peptide). The format is biochemical. Conditions: ATP at Km (15 uM), 30 min pre-incubation. The procedure: Compounds of the present invention were assayed to measure their capacity to inhibit a spleen tyrosine kinase (SYK).
Compounds of the invention were initially diluted to 10 mM in 100% DMSO (CALBIOCHEM™) for storage and made into kinase buffer solution to create a compound concentration ranging from 1 uM and 10 uM. Serial dilutions of compounds of the invention were dispensed into a 96-well plate (GREINER BIOSCIENCES™) at 6 μL each. Purified full-length human SYK (CARNA BIOSCIENCES™) were diluted in kinase buffer and added to the compound solutions and pre-incubated for 30 minutes at room temperature. […] The reaction mixture was incubated for 1 hour. Following the incubation, the stop solution made with EDTA, water, and Lance detection buffer ([…]™) was added (12 μL each) to stop phosphorylation.
A general note: TR-FRET usually uses a lanthanide donor and a delayed reading to cut background.

Where [3] appears, read: 144 h, read-out: Inhibition of immunoglobulin production, IgG IC50.
The mark [4] stands for this setting: 144 h, read-out: Inhibition of immunoglobulin production, IgM IC50.

In the case of `COc1cc(Nc2ncc(F)c(Nc3ccc4c(n3)NC(=O)C(C)(C)O4)n2)cc(OC)c1OC` [Compound R406, reference compound], the IC50 in test [1] (read-out: Inhibition of immunoglobulin production, IgG IC50) stood at 369 nM; in test [1] (read-out: Inhibition of immunoglobulin production, IgM IC50) it was 180 nM; in the test with SUDHL6, 3230 nM; in the test on SUDHL4 it was 3670 nM; in the test on OCI-LY1, 3890 nM; in the test with THP-1 cells, 217 nM.

On to `Cc1nn(-c2ccnc(Nc3ccc4c(c3)c(C(=O)C3CC3)cn4C)n2)cc1CN1C[C@H](O)CO1` [Compound 1, (S)-cyclopropyl(5-(4-(4-((4-hydroxyisoxazolidin-2-yl)methyl)-3-methyl-1H-pyrazol-1-yl)pyrimidin-2-ylamino)-1-methyl-1H-indol-3-yl)methanone], for which the “Inhibition in arthritis phenotype indicated by CIA, compared with R788 (in words)” value in test [2] (30 mg/kg/day oral, versus R788) is recorded as “stronger inhibition”. In addition, the “CIA index (arthritic score of test group / vehicle group x 100)” value is listed as 3.0 ± 2.8% in test [2] (day 4); 24.0 ± 9.2% in test [2] (day 7); 40.1 ± 13.8% in test [2] (day 10); 36.2 ± 12.0% in test [2] (day 13); 33.5 ± 10.5% in test [2] (day 17); 33.6 ± 10.4% in test [2] (day 19). For the same compound, the IC50 in test [1] (setting [3]) was 296 nM; in test [1] (setting [4]) it was 232 nM; with SUDHL6 (Homo sapiens, SU-DHL-6) it was 2840 nM; with SUDHL4 (Homo sapiens, SU-DHL-4), 1070 nM; in the test with OCI-LY1 (Homo sapiens), 1830 nM; in the test on THP-1 cells it was 52 nM. In test [1], the “Inhibition of IgG and IgM production (in words)” value was “potent inhibition”. Also, the “Inhibition of proliferation (in words)” value in the test on SUDHL6, in the test with SUDHL4 and with OCI-LY1 was “potent inhibition” throughout.

For the compound `Cn1cc(C(=O)C2CC2)c2cc(Nc3nccc(-n4cc(CN5C[C@H](O)CO5)cn4)n3)ccc21` [Compound 30, (S)-cyclopropyl(5-(4-(4-((4-hydroxyisoxazolidin-2-yl)methyl)-1H-pyrazol-1-yl)pyrimidin-2-ylamino)-1-methyl-1H-indol-3-yl)methanone], the IC50 in test [1] (setting [3]) was determined as 188 nM; in test [1] (setting [4]) it was 90 nM; in the test with SUDHL6 (Homo sapiens, SU-DHL-6) it was 929 nM; with SUDHL4 (Homo sapiens, SU-DHL-4), 952 nM; in the test with OCI-LY1 (Homo sapiens) it was 2300 nM; in the test with THP-1 cells, 17 nM. This compound registered an IC50 on full-length human SYK of 2.46 nM. Further, the “Inhibition of IgG and IgM production (in words)” value in test [1] is “potent inhibition”. For the same compound, the “Inhibition of proliferation (in words)” value in the test with SUDHL6, with SUDHL4 and with OCI-LY1 was “potent inhibition” each time.
